Paper PMC4148180 (Neurobiology of Disease, 2014)

What was measured:
P2Y12 receptor (P2Y12R) [1] = target: T1, P2Y12 receptor (P2Y12R) (Homo sapiens, UniProt Q9H244); test: inhibition of forskolin-induced cAMP formation; type: cell-based
P2Y12 receptor (P2Y12R) [2] = target: T1, P2Y12 receptor (P2Y12R); test: cAMP accumulation assay, rightward shift of 2-methylthio-ADP curve; type: cell-based

T1 sequence (Q9H244 whole entry): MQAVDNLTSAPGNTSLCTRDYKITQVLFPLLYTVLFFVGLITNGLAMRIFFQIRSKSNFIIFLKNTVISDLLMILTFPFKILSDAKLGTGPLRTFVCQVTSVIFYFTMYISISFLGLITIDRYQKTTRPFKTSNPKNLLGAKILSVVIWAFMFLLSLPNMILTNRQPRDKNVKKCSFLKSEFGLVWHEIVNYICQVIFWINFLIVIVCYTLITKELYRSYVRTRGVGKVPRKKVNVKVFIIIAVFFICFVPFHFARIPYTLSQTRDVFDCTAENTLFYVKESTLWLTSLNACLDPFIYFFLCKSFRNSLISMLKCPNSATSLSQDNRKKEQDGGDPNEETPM

EC50 (P2Y12 receptor (P2Y12R) [1])	Kb (P2Y12 receptor (P2Y12R) [2])	SMILES
0.26 nM		CSc1nc(N)c2ncn([C@@H]3O[C@H](COP(=O)(O)OP(=O)(O)O)[C@@H](O)[C@H]3O)c2n1 [2-methylthio-ADP]
	0.0794 nM	Nc1c(S(=O)(=O)O)cc(Nc2ccc(Nc3ccccc3)c(S(=O)(=O)O)c2)c2c1C(=O)c1ccccc1C2=O [PSB-0739]
